# Tested on: normally potent male patients suffering from premature ejaculation
# Assay: Example 2 Study Group 1: single blind cross-over, continual maintenance paroxetine vs placebo (ELT, coitus frequency)
# Type: in vivo, human
# Source text: All patients in the study group were heterosexual, had no other sexual disorders and were either married or in a stable relationship. Patients with erectile dysfunction, reduced sexual desire, inhibited male orgasm, chronic depressive, psychiatric or physical illness, alcohol or substance abuse and the use of psychotropic and anti-depressant medication were excluded from the trial. Study Group 1 was comprised of 26 patients who were randomized into two treatment groups, Group A and Group B. […] Group B received placebo similarly administered about 3-4 hours before sexual intercourse. Patients were reviewed every two weeks. Cross-over was then conducted in both groups after four weeks of treatment, following an intervening three week drug free “washout” period, for a further four weeks of treatment. None of the patients received any formal psychosexual counseling. Patients were supplied with a diary and were asked to record their frequency of coitus, quality of erection and orgasm. Patients were asked to measure their ELT using a stopwatch. Pre-treatment mean ELT was measured over a three week baseline period during which patients were asked to have sexual intercourse at least three times. Pre-treatment frequency of coitus was the mean number of attempts in the previous three months. Patients were asked not to use condoms or topical penile anaesthetic creams or sprays. The frequency data of coitus and ejaculatory latency time (ELT) during the paroxetine and placebo treatment phases were statistically compared (Student's t-test).
# [1] = Study Group 1-A, week 1: continual maintenance paroxetine 20 mg 3-4 hours before intercourse
# [2] = Study Group 1-A, week 2: continual maintenance paroxetine 20 mg 3-4 hours before intercourse
# [3] = Study Group 1-A, week 3: continual maintenance paroxetine 20 mg 3-4 hours before intercourse
# [4] = Study Group 1-A, week 4: continual maintenance paroxetine 20 mg 3-4 hours before intercourse
# [5] = Study Group 1-B, week 8: first week of continual maintenance paroxetine 20 mg after placebo and washout
# [6] = Study Group 1-B, week 9: second week of continual maintenance paroxetine 20 mg after placebo and washout
# [7] = Study Group 1-B, week 10: third week of continual maintenance paroxetine 20 mg after placebo and washout
# [8] = Study Group 1-B, week 11: fourth week of continual maintenance paroxetine 20 mg after placebo and washout
smiles,measurement,setting,value
"Fc1ccc([C@@H]2CCNC[C@H]2COc2ccc3c(c2)OCO3)cc1 (relative stereo) [paroxetine, trans-(−)-3-(1,3-benzodioxol-5-yloxy)methyl-4-(4-fluorophenyl) piperidine]",Coitus Frequency/wk,[1],1.1 /wk
same,Ejaculatory Latency Time,[1],1.0 min
same,Coitus Frequency/wk,[2],1.4 /wk
same,Ejaculatory Latency Time,[2],3.0 min
same,Coitus Frequency/wk,[3],2.3 /wk
same,Ejaculatory Latency Time,[3],2.9 min
same,Coitus Frequency/wk,[4],3.2 /wk
same,Ejaculatory Latency Time,[4],3.2 min
same,Coitus Frequency/wk,[5],0.6 /wk
same,Ejaculatory Latency Time,[5],1.3 min
same,Coitus Frequency/wk,[6],1.9 /wk
same,Ejaculatory Latency Time,[6],2.8 min
same,Coitus Frequency/wk,[7],3.5 /wk
same,Ejaculatory Latency Time,[7],3.5 min
same,Coitus Frequency/wk,[8],3.1 /wk
same,Ejaculatory Latency Time,[8],3.5 min
same,time to prolongation of the ejaculatory interval (ELT),Study Group 1: continual maintenance paroxetine,1-2 weeks
same,patients achieving intra-vaginal ejaculation for the first time,"Study Group 1, patients who had never previously achieved it, after two weeks of treatment",one of three
